Results: US7981915B2, “Methods for modulating PPAR biological activity for the treatment of diseases caused by mutations in the CFTR gene” (Beth Israel Deaconess Medical Center, priority 2003, dated 2011)

Assays:
PPARα = molecular target: T1, PPARα (Mus musculus, UniProt P23204); test: Western blot of PPARα in nuclear and cytosolic liver extracts; assay type: in vivo; conditions: 3 mice per group
T1 construct: from tissue; host or cells: mouse liver homogenate (WT and cftr-/- C57/BL6)
T1 sequence (P23204 1-468): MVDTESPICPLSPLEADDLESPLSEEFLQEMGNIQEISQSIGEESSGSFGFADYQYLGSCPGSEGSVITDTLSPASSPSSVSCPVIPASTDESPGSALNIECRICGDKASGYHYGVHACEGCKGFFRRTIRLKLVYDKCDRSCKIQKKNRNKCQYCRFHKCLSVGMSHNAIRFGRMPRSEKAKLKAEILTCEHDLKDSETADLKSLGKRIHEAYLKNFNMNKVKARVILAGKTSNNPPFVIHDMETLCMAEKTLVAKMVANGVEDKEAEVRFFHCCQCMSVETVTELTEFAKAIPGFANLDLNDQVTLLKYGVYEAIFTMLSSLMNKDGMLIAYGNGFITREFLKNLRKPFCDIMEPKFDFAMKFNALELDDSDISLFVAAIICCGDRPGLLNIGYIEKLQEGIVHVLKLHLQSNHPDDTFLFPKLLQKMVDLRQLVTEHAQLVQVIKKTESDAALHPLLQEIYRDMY
Protocol: On day 40, WT and cftr^−/− mice were fed Peptamen alone or Peptamen plus 125 mg DSS/day (MP Biomedicals, Aurora, Ohio) for 5 days followed by 9 days of 85 mg DSS/day as previously described for the genesis of bile duct injury (Blanco, P. G. et al., supra). The amount of DSS in Peptamen was equally measured for WT and cftr^−/− mice. The volume of Peptamen administered (20 ml) was measured on a daily basis. There was no difference in Peptamen intake between WT and cftr^−/− mice. The mean weight of WT mice at the start of DSS treatment was 20.5 g (range 14.5-26 g), and the mean weight of cftr^−/− mice was 18.9 g (range 15.5-23.5 g). These values were not statistically different between WT and cftr^−/− mice. […] There was no difference in weight lost during DSS treatment comparing WT and cftr^−/− mice. […] Bile duct injury was quantified, as previously described, by examining histological features of epithelial injury, bile duct proliferation, and bile duct angulation (Blanco et al., supra). […]
For western blotting, nuclear and cytoplasmic extracts were prepared as described previously (Ollero et al., supra). […] Protein concentration was measured in all samples by the Bradford protein assay (Bio-Rad, Hercules, Calif.). […]

PPARα mRNA [1] = test: Liver PPARα mRNA by quantitative RT-PCR (DSS colitis / DHA); assay type: in vivo, mice
Protocol: On day 40, WT and cftr^−/− mice were fed Peptamen alone or Peptamen plus 125 mg DSS/day (MP Biomedicals, Aurora, Ohio) for 5 days followed by 9 days of 85 mg DSS/day as previously described for the genesis of bile duct injury (Blanco, P. G. et al., supra). The amount of DSS in Peptamen was equally measured for WT and cftr^−/− mice. The volume of Peptamen administered (20 ml) was measured on a daily basis. There was no difference in Peptamen intake between WT and cftr^−/− mice. The mean weight of WT mice at the start of DSS treatment was 20.5 g (range 14.5-26 g), and the mean weight of cftr^−/− mice was 18.9 g (range 15.5-23.5 g). These values were not statistically different between WT and cftr^−/− mice. […] There was no difference in weight lost during DSS treatment comparing WT and cftr^−/− mice. Additional mice from these groups were given DHA (Pure Encapsulations, Sudbury, Mass.) prepared as a stable emulsion in Peptamen, at a dose of 40 mg per day for 5 days before and continued for 14 days during administration of the DSS. Bile duct injury was quantified, as previously described, by examining histological features of epithelial injury, bile duct proliferation, and bile duct angulation (Blanco et al., supra). To determine whether a complete absence of PPARα was responsible for the bile duct injury, 5 PPARα^−/− mice were treated with 5% DSS in drinking water for 7 days to induce colitis (Okayasu et al., Gastroenterology, 98:694-702, 1990). PPARγ^−/− mice are not viable and thus were not tested.
After each specific treatment, the mice were euthanized with carbon dioxide. Tissues were snap frozen in RNAlater (Ambion, Austin, Tex.) for RNA extraction (Barrett et al., Nat Genet, 23:32-33, 1999). PPAR mRNA analyses were performed by quantitative RT-PCR. Total RNA from cftr^−/− and WT tissues was prepared using the RNA STAT-60 isolation reagent (Tel-Test, Friendswood, Tex.) and quantified spectrophotometrically. Quantitative PCR was performed in an ABI Prism 7700 Sequence Detector (Applied Biosystems, Foster City, Calif.) using a RT-PCR master mix kit (Applied Biosystems) according to the manufacturer's instructions. PCR primers and PPAR FAM-labeled TaqMan probes were from Integrated DNA Technologies (Coralville, Iowa). The oligonucleotide sequences used for PPARγ were the following: PPARγ exon 2 FW 5′-TCACAAGAGCTGACCCAATGGT-3′ (SEQ ID NO: 1), PPARγ exon 2 RV 5′-ATAATAAGGTGGAGATGCAGGTTCTAC-3′ (SEQ ID NO: 2), PPARγ probe 5′-FAM-CTGAAGCTCCAAGAATACCAAAGTGCGATC-TAMRA-3′ (SEQ ID NO: 3). The sequences used for PPARα were the following: PPARα FW 5′-TATTCGGCTGAAGCTGGTGTAC-3′ (SEQ ID NO: 9), PPARα RV 5′-CTGGCATTTGTTCCGGTTCT-3′ (SEQ ID NO: 10), PPARα probe 5′-CTGAATCTTGCAGCTCCGATCACACTTG-3′ (SEQ ID NO: 11). Levels of mRNA were normalized to 18s ribosomal RNA (ribosomal RNA control reagents, Applied Biosystems) quantified simultaneously to PPAR in a multiplex RT-PCR reaction. Thermocycler conditions used were—Stage 1: 48° C./30 minutes; Stage 2: 95° C./10 minutes; Stage 3: 40 cycles of 95° C./15 seconds and 60° C./60 seconds. All samples were analyzed in duplicate.

PPARγ mRNA = test: Liver PPARγ mRNA by quantitative RT-PCR (DSS colitis / DHA); assay type: in vivo; conditions: WT and cftr−/− mice; DSS in the absence or presence of DHA; to undetectable levels
Protocol: On day 40, WT and cftr^−/− mice were fed Peptamen alone or Peptamen plus 125 mg DSS/day (MP Biomedicals, Aurora, Ohio) for 5 days followed by 9 days of 85 mg DSS/day as previously described for the genesis of bile duct injury (Blanco, P. G. et al., supra). The amount of DSS in Peptamen was equally measured for WT and cftr^−/− mice. The volume of Peptamen administered (20 ml) was measured on a daily basis. There was no difference in Peptamen intake between WT and cftr^−/− mice. The mean weight of WT mice at the start of DSS treatment was 20.5 g (range 14.5-26 g), and the mean weight of cftr^−/− mice was 18.9 g (range 15.5-23.5 g). […] Bile duct injury was quantified, as previously described, by examining histological features of epithelial injury, bile duct proliferation, and bile duct angulation (Blanco et al., supra). […]
After each specific treatment, the mice were euthanized with carbon dioxide. […] PPAR mRNA analyses were performed by quantitative RT-PCR. Total RNA from cftr^−/− and WT tissues was prepared using the RNA STAT-60 isolation reagent (Tel-Test, Friendswood, Tex.) and quantified spectrophotometrically. Quantitative PCR was performed in an ABI Prism 7700 Sequence Detector (Applied Biosystems, Foster City, Calif.) using a RT-PCR master mix kit (Applied Biosystems) according to the manufacturer's instructions. […] All samples were analyzed in duplicate.

IL-6 [2] = test: LPS-induced IL-6 secretion from peritoneal macrophages incubated in vitro with PPAR agonists; assay type: cell-based, mice; conditions: CF macrophages; in vitro 12 hours; Wy14643 50 μM, rosiglitazone 10 μM; 100 ng/ml LPS
TNFα = test: LPS-induced TNFα secretion from peritoneal macrophages incubated in vitro with PPAR agonists; assay type: cell-based, mice; conditions: in vitro 12 hours, DHA 5 μM, Wy14643 50 μM, rosiglitazone 10 μM
Protocol: (§1) Cftr^−/− exon 10 knockout mice and wild-type (WT) littermates were maintained on peptamen (as described above). Peritoneal macrophages were induced by intraperitoneal injection of 2 ml thioglycollate broth followed by harvesting of the macrophages 4 days after injection. For studies determining the effect of in vivo pretreatment of DHA, cftr^−/− mice were given 40 mg DHA/day for 10 days. For in vitro experiments, harvested macrophages were plated in RPMI medium with 10% serum and incubated for 12 hours with media alone or with DHA (5 μM), EPA (5 μM) the PPAR agonist Wy14643 (50 μM) or the PPAR agonist rosiglitazone (10 μM). The cells were washed and then stimulated with 0-10000 ng/ml LPS for 4.5 hours. TNFα and IL-6 secretion were measured by ELISA. Fatty acids were analyzed by GC/MS.

PPARα mRNA [3] = conditions: rat liver; cited from earlier work
IL-6 [4] = test: LPS-induced IL-6 secretion from peritoneal macrophages after in vivo DHA pretreatment; set-up: species or system mice; conditions: CF peritoneal macrophages; oral DHA pretreatment 40 mg/day for 10 days
Protocol: as §1

[5] = WT mice, single treatment, compared to untreated
[6] = cftr−/− mice, single treatment, compared to untreated

## dextran sodium sulfate [DSS]
PPARα; WT mice
  PPARα nuclear/cytoplasmic ratio, liver (densitometry): 1.06±0.05
PPARα; cftr−/− mice
  PPARα nuclear/cytoplasmic ratio, liver (densitometry): 0.61±0.02
PPARα mRNA [1]; [5]
  increase in liver PPARα mRNA: 9.3 fold
PPARα mRNA [1]; [6]
  increase in liver PPARα mRNA: no significant change
PPARγ mRNA
  liver PPARγ mRNA levels: markedly suppressed

## CN(CCOc1ccc(CC2SC(=O)NC2=O)cc1)c1ccccn1 (stereo not shown) [rosiglitazone]
IL-6 [2]
  decrease in LPS induced IL-6 secretion: no effect
TNFα; WT macrophages
  decrease in LPS induced TNFα secretion: 18%

## Cc1cccc(Nc2cc(Cl)nc(SCC(=O)O)n2)c1C [Wy14643]
PPARα mRNA [3]
  PPARα mRNA levels: increase PPARα mRNA levels
TNFα; WT macrophages
  decrease in LPS induced TNFα secretion: did not alter secretion

## CC/C=C\C/C=C\C/C=C\C/C=C\C/C=C\CCCC(=O)O [EPA, eicosapentaenoic acid]
TNFα; CF macrophages, EPA 5 μM, 100 ng/ml LPS
  decrease in LPS induced TNFα secretion: no effect

## CC/C=C\C/C=C\C/C=C\C/C=C\C/C=C\C/C=C\CCC(=O)O [DHA, Docosahexaenoic Acid]
PPARα mRNA [1]; WT mice, combination of DSS and DHA, compared to no DSS and no DHA
  increase in liver PPARα mRNA: 10.4 fold
PPARα mRNA [1]; [5]
  increase in liver PPARα mRNA: 12.1 fold
PPARα mRNA [1]; cftr−/− mice, combination of DSS and DHA, compared to DSS only, not statistically significant
  increase in liver PPARα mRNA: 2.7 fold
PPARα mRNA [1]; cftr−/− mice, combination of DSS and DHA, compared to no DSS and no DHA
  increase in liver PPARα mRNA: 4.3 fold
PPARα mRNA [1]; [6]
  increase in liver PPARα mRNA: 7.0 fold
IL-6 [4]
  LPS-induced IL-6 secretion: no effect
